Like-named read-outs stand apart in the source and are kept apart here.
Experiments:
[1] = Calcium green-1 dextran dissociation constant from MP-FLIM lifetime and intensity data in CaEGTA calcium buffers; assay type: binding
Experimental: Calcium buffers (CaEGTA) and calcium green-1 dextran (CaGD) were purchased from Molecular Probes. The calcium buffers provide free Ca^+2 over a nanomolar to millimolar concentration range in a matrix closely matching the pH and ionic strength of the cytosol. The lifetimes and relative contributions of these bound and unbound decays are determined by fitting multi-exponential curves to the instrumental data. Buffer kit #2 (0-39 micromoles/L free Ca^+2) was used in this work to determine the response of calcium green dextran to low calcium concentrations. Initial work was done with Buffer kit #3, but the range of free Ca^+2 (0-1000 micromoles/L) was too high for the dye chosen. Calcium ion concentration is approximately 0.1 micromoles/L in resting cell's cytoplasm and in the increases to the micromolar range upon stimulus (Pollard, 2002).
Samples were analyzed in a random order during each experiment using the MP-FLIM system and a quartz solution cell. […] Each sample produced two full fields of view (256×256) where each image pixel contains a decay curve. As the calcium green dextran was present in bound and unbound forms, double exponential fits were performed using SPCImage (version 2.7.7238.0). The double exponential decays were calculated for each sample on the entire field of view, generating 65,536 values for each field of view. The average decay for each field of view was calculated as a sum of the per pixel lifetime values weighted by the amplitudes (contributions) of each lifetime to each pixel. Table 1 details the results for the calculation of the unbound dye fluorescence lifetime. The average τ1 from the measurements is 405.6 ps, with a sample standard variance of approximately 1.0 ps.
The balance of the calcium buffer data were analyzed using the SPCImage software under similar conditions as given in Table 1, with the exception that the short lifetime was fixed to 405.6 ps in the model parameters settings box. In addition, the zero Ca^+2 buffer average lifetimes were recalculated using the fixed short lifetime value. Due to instabilities in the software interface, the short lifetime was designated as τ2 in the fit parameters box. A second order polynomial fit of average lifetime in picoseconds versus calcium concentration in micromoles/L for a calcium concentration range from 0 to 0.602 micromoles/L yields the relationship: τavg=−3047 c^2+4472 c+601, R^2=0.9976; RMSE=30.9 ps.
A significant reported advantage of fluorescence lifetime measurements is that the dependence of fluorescence lifetime on calcium concentration is insensitive to dye concentration provided the dye itself is at low enough concentrations so as to not buffer the calcium ion in the cell or the cuvette. In order to test this property in the calcium green dextran system, additional sample sets were made up with 2.5-micromoles/L dye and 9.9-micromoles/L dye in the buffer solutions. The variations in lifetime data and intensity data with dye concentrations are given in FIG. 2 and FIG. 3, respectively. The lifetime data appears to be invariant with dye concentration, where the average standard deviation (variation in lifetime with dye concentration at each calcium concentration) for the lifetime data on the order or 25 ps. In contrast, the intensity variability is significant, where the intensity of the fluorescence is dependent upon the calcium concentration and the dye concentration.
Finally, calcium green-1 dissociation constants were calculated for the various dye concentrations using lifetime and intensity-based data sets.

[2] = read-out: KD for calcium; cited from earlier work
[3] = test system: taste cells in porcine taste tissue (fungiform papilla taste bud); assay: Multiphoton fluorescence lifetime imaging (MP-FLIM) of stimulated porcine taste tissue in static bath; assay type: cell-based; details: for response of taste cells to stimuli (calcium green lifetime imaging): bulk addition: 0.5 mL of 25-micromolar cycloheximide, then 0.5 mL of 1-millimolar sucralose, in deionized water
Text: Fresh porcine taste tissue was procured in the prescribed manner from a local slaughterhouse and transported, after removal from the tongue, in chilled, oxygenated Tyrode's solution to the preparation laboratory. The tissue was affixed to a coated Petri dish and taste buds iontophoretically loaded (1.0 microampere) with calcium green dextran dye (1 mmol/L in DI water) via a drawn capillary pipette. Several taste pores were loaded on a papilla, with several papillae loaded overall, providing 3-5 taste buds loaded with dye. The tissue was mounted in a chamber and placed onto the microscope stage. The sample was imaged using the 63× water-dipping objective, 60% laser power at 810-nm excitation, in xzy mode (256×256 pixels) in order to image the taste bud and surface features at once in a longitudinal section. The photomultiplier tube gain on the FLIM system was set to 85% and the initial Leica settings (non-optimized) were used to capture FLIM images of the tissue over a 10-15 minute time course.
The same field of view was then imaged using the multiphoton lifetime imaging capability of the instrument. The optical conditions for lifetime mage collection are identical to intensity-based imaging, except that in photon counting mode the collection requires 30 seconds in this case for adequate signal to noise. The lifetimes were calculated by a double exponential fit of the decay curves and color-coded based on average lifetime per pixel. Red values are shorter lifetimes in this case. […] The shortest lifetime evident in this image is associated with the apical end of the taste cell directly below the pore. At rest, the average lifetime for all of the cells in the field of view is 1,634 picoseconds. The short lifetime component of the fit was set to 350 picoseconds, an estimate of the short lifetime component based on initial calcium calibrations in order to facilitate rapid fitting of the data for comparison.
The taste bud was exposed to several gross stimuli: cycloheximide and sucralose in deionized water. The purpose of this stimulus experiment was to determine if the bud would remain viable during the time course of a stimulus and if possible, to determine the presence of a gross response via lifetime imaging. The stimulants were applied via bulk addition to the chamber holding the tissue: 0.5 mL of 25-micromolar cycloheximide was first added after removal of 1 mL buffer; 0.5 mL of 1 -millimolar sucralose added after the cycloheximide stimulus and removal of additional 1 mL buffer. The MP-FLIM image data were collected at approximately 1-minute intervals using the same optical and exposure conditions used to generate the resting image described above. […]

[4] = test system: taste bud cells in porcine taste tissue; assay: Multiphoton fluorescence intensity imaging of stimulated porcine taste tissue in flowing perfusing medium; assay type: cell-based
Experimental: Two papillae in close proximity to one another were loaded in this manner. The papillae were extracted from the larger piece of tissue and placed into the open chamber configuration (this work was done prior to that using the closed, gasketed chamber). The tissue was repeatedly stimulated with 20 mmol/L citric acid using the 1.0 mL/min flow rate and 1.0 mL sample loop, switched to the load position as time series data acquisition began. The imaging parameters were as follows: 400 Hz galvo scan rate, 2× zoom with 63× objective, 256×256 pixel image format, 2× frame average, 810 nm laser at 36%, and 0.5 Hz frame scan rate. The tissue was received at approximately 8:00 am, transported in oxygenated Tyrode's solution to the lab, loaded at approximately 10:00 am and imaged at approximately 11:00 am. Cells from two adjacent taste buds within the second papilla were imaged in xyzt mode at a depth of approximately 35 micrometers. […] The time series data were processed using the alignment tools development to address the tissue movement issues. […] However, the movement in this case was primarily in the x-y plane, and therefore the alignment algorithm provided sufficient alignment. […] However, the relative difference in emission and differences in slope due to photobleaching makes comparison between cells difficult. […]

In the case of calcium green-1 dextran, the Kd ([1]; dye concentration 2.5 micromoles/L, read-out: Kd, Intensity Data) is reported as 0.482 µM, the Kd ([1]; dye concentration 2.5 micromoles/L, read-out: Kd, Lifetime Data) is reported as 0.342 µM and the Kd ([1]; dye concentration 5.0 micromoles/L, read-out: Kd, Intensity Data) is reported as 0.52 µM. The Kd ([1]; dye concentration 5.0 micromoles/L, read-out: Kd, Lifetime Data) was 0.329 µM, the Kd ([1]; dye concentration 9.9 micromoles/L, read-out: Kd, Intensity Data) was 0.382 µM and the Kd ([1]; dye concentration 9.9 micromoles/L, read-out: Kd, Lifetime Data) was 0.289 µM. The Kd [2] was about 0.54 µM.

For OC[C@H]1O[C@H](O[C@]2(CCl)O[C@H](CCl)[C@@H](O)[C@@H]2O)[C@H](O)[C@@H](O)[C@H]1Cl [sucralose], the “calcium concentration surrounding the taste cells during stimulus” value ([3]; 0.5 mL of 1-millimolar sucralose, bulk addition) was “decreased”, the “change of calcium green lifetime around the taste cells on stimulus” value ([3]; 0.5 mL of 1-millimolar sucralose, bulk addition after cycloheximide stimulus, images at about 1-minute intervals) was “significant shortening of the calcium green lifetime around the taste cells” and the “response of taste cells to stimuli (calcium green lifetime imaging)” value [3] was “taste cells responded to the stimuli”.

With C[C@@H]1C[C@@H]([C@H](O)CC2CC(=O)NC(=O)C2)C(=O)[C@@H](C)C1 [cycloheximide] the “response of taste cells to stimuli (calcium green lifetime imaging)” value [3] was “taste cells responded to the stimuli”.

For O=C(O)CC(O)(CC(=O)O)C(=O)O [citric acid], the “baseline corrected average fluorescence intensity per cell (intracellular calcium response)” value ([4]; 20 mmol/L citric acid, 1.0 mL/min flow, 1.0 mL sample loop, seven cells in field of view) was “strong response to the stimulus in cell 1 with lower magnitude responses in other cells” and the “response to successive stimuli” value ([4]; three successive 20 mmol/L citric acid stimuli, 5 minutes artificial saliva between stimuli) was “decrease in response to subsequent stimulus”.
